From patent publication US20250034151A1, “WEE1 INHIBITOR, PREPARATION THEREFOR, AND USE THEREOF” (JIANGSU TASLY DIYI PHARMACEUTICAL CO., LTD., priority 2022, published 2025)

Tests used:
[1] = molecular target: T1, Wee1 protein (Homo sapiens, UniProt P30291); assay: Binding of compound to Wee1 protein and Tracer 178 by TR-FRET (Wee1 kinase inhibitory activity); settings: 15 nM WEE1, 50 nM Tracer 178, read-out: IC50 (inhibitory activity against Wee1 kinase)
T1 construct: purchased Thermo Fisher PR7373A
Description: First, solutions of the compounds in different concentration gradients were prepared. The compounds were dissolved in DMSO and the compounds were diluted 4 folds with a total of 10 dose points and 2 parallel replicates for each concentration.
The IC50 for inhibition of enzyme activity by the compounds was then calculated using GraphPad Prism 6 and fitted with a log (inhibitor) vs. response-Variable slope mode. The fitting equation was: Y=Bottom+(Top−Bottom)/(1+10^((Log IC50−X)*HillSlope)), wherein Y represents the percentage of residual enzyme activity known and X represents the known concentration of compound after the logarithm.

[2] = test system: H1299 cells; assay: Anti-proliferative effect on H1299 cells by Cell Titer-Glo; format: cell-based; settings: Homo sapiens, NCI-H1299, 72 h, 3 days, read-out: H1299 (IC50, inhibition of proliferation in vitro)
Description: (§1) Test Example 2: Evaluation of Cell Proliferation Inhibitory Activity
1. Evaluation of the Anti-Proliferative Effect of Compounds on H1299 Cells by the Cell Titer-Glo Method
(§2) Compound solutions of different concentration gradients were prepared. […] The cell growth group without compound was used as a positive control (maximum signal control) and the medium was used as a negative control (minimum signal control), while ensuring that the final level of DMSO in each reaction well was 0.2%. After removing the medium from the 384-well plate, 25 ul of the configured compound at different concentrations was transferred into the well plate and the compound and cells were incubated in the cell incubator at 37° C. with 5% CO2 for 3 days.
(§3) The 384-well plates were removed from the cell incubator and allowed to equilibrate for 1h to room temperature. 25 ul of Cell Titer-Glo assay was added to each well, lysed on a shaker for 2 min and then read out (Luminescence) using a BMG PHERAStar after 10 min incubation. Calculate the inhibition rate from the luminescence signal: first calculate the average of the positive control (maximum signal control) and the negative control (minimum signal control).
(§4) was used to calculate the rate of inhibition of the cells by different concentrations of the compounds. The IC50 of the compound on cell activity inhibition was calculated by fitting a log(inhibitor) vs. response-Variable slope model to GraphPad Prism 6. The fitted equation was: Y=Bottom+(Top−Bottom)/(1+10^((Log IC50−X)*HillSlope)), where Y represents the rate of inhibition and X represents the concentration of the known compound after Log.
(§5) The results of the in vitro anti-cell proliferation assays of H1299 and MIA Paca-2 for the example compounds according to the method described above are shown in Table 2, wherein the IC50 of each compound was determined and classified according to the description as follows: […]

[3] = test system: MIA PaCa2 cells; assay: Anti-proliferative effect on MIA PaCa2 cells by Cell Titer-Glo; format: cell-based; settings: Homo sapiens, MIA PaCa-2, 72 h, 3 days, read-out: MIA PaCa 2 (IC50, inhibition of proliferation in vitro)
Description: as §1
2. Evaluation of the Anti-Proliferative Effect of Compounds on MIA PaCa2 Cells by the Cell Titer-Glo Method
as §2
as §3, with “1 h” for “1h”
as §4, with “Y=Bottom+(Top-Bottom)/(1+10^((Log” for “Y=Bottom+(Top−Bottom)/(1+10^((Log”, “wherein” for “where”
as §5

T1 sequence (P30291 whole entry): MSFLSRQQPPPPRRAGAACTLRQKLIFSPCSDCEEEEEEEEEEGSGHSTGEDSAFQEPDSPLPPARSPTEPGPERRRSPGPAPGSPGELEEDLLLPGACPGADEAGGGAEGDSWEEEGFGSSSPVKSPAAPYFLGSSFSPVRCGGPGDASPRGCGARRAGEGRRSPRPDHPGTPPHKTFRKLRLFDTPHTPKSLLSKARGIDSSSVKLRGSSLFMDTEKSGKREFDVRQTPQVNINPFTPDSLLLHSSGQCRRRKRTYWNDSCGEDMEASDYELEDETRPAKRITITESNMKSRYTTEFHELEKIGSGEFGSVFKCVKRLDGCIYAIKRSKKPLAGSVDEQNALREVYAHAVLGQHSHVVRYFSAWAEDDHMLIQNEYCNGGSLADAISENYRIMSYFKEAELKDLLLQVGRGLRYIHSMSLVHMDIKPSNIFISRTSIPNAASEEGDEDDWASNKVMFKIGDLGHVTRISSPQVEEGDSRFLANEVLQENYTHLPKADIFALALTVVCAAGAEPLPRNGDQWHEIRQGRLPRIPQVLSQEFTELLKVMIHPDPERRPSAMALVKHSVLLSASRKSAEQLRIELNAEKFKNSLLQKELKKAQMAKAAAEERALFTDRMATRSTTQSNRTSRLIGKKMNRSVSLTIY

| Compound | IC50 [1] [µM] | IC50 [2] [µM] | IC50 [3] [µM] |
| --- | --- | --- | --- |
| C=CCn1c(=O)c2cnc(Nc3ccc(OC4CN5CCC4CC5)cc3)nc2n1-c1cccc(N=S(C)(C)=O)n1 (centres unmarked) [Compound 7] | < 0.005 | 0.1 to 1 |  |
| C=CCn1c(=O)c2cnc(Nc3ccc(-c4cc(=O)[nH]c5c4N4CCC5CC4)cc3)nc2n1-c1cccc(C(C)(C)O)n1 [Compound 16] | 0.01 to 0.1 | > 10 | > 10 |
| C=CCn1c(=O)c2cnc(Nc3ccc(N(C)[C@H]4CN5CCC4CC5)cc3)nc2n1-c1cccc(C(C)(C)O)n1 [Compound 29] | 0.005 to 0.01 | > 10 | > 10 |
| C=CCn1c(=O)c2cnc(Nc3ccc(C4CC45C(=O)C4CCN5CC4)cc3)nc2n1-c1cccc(C(C)(C)O)n1 (centres unmarked) [Compound 32] | 0.01 to 0.1 | 2 to 5 | 2 to 5 |
| C=CCn1c(=O)c2cnc(Nc3ccc(C4(O)CCN(C)CC4)cc3)nc2n1-c1cccc(C(C)(C)O)n1 [Compound 35] | 0.01 to 0.1 | 2 to 5 | 1 to 2 |
| C=CCn1c(=O)c2cnc(Nc3ccc(C4CC45C(=O)C4CCN5CC4)cc3)nc2n1-c1cccc(N=S(C)(C)=O)n1 (centres unmarked) [Compound 47] | < 0.005 | 0.1 to 1 | 0.1 to 1 |
| C=CCn1c(=O)c2cnc(Nc3ccc([C@H]4C[C@@]45C(=O)C4CCN5CC4)cc3)nc2n1-c1cccc(N=S(C)(C)=O)n1 [Compound 47a] | 0.01 to 0.1 | 0.1 to 1 | 1 to 2 |
| C=CCn1c(=O)c2cnc(Nc3ccc([C@@H]4C[C@]45C(=O)C4CCN5CC4)cc3)nc2n1-c1cccc(N=S(C)(C)=O)n1 [Compound 47b] | 0.01 to 0.1 | 2 to 5 | 2 to 5 |
| C=CCn1c(=O)c2cnc(Nc3ccc(N4CC5CC(C4)N5C4COC4)cc3)nc2n1-c1cccc(C(C)(C)O)n1 [Compound 58] | 0.005 to 0.01 | 0.1 to 1 | 0.1 to 1 |
| C=CCn1c(=O)c2cnc(Nc3ccc(N4CC5CC(C4)N5C)cc3)nc2n1-c1cccc(C(C)(C)OC)n1 [Compound 60] | 0.005 to 0.01 | 0.1 to 1 | 0.1 to 1 |
| C=CCn1c(=O)c2cnc(Nc3ccc(N4CC5CC(C4)N5C4CN(C)C4)cc3)nc2n1-c1cccc(C(C)(C)O)n1 [Compound 63] | 1 to 10 | > 10 | > 10 |
| C=CCN1C2CC1CN(c1ccc(Nc3ncc4c(=O)n(CC=C)n(-c5cccc(C(C)(C)O)n5)c4n3)cc1)C2 [Compound 64] | 0.01 to 0.1 | 0.1 to 1 | 0.1 to 1 |
| C=CCn1c(=O)c2cnc(Nc3ccc(N4CC5CC(C4)N5CC)cc3)nc2n1-c1cccc(C(C)(C)O)n1 [Compound 65] | 0.005 to 0.01 | 0.1 to 1 | 0.1 to 1 |
| C=CCn1c(=O)c2cnc(Nc3ccc(N4CC5CC(C4)N5C(=O)OC)cc3)nc2n1-c1cccc(C(C)(C)O)n1 [Compound 69] | 0.01 to 0.1 | 0.1 to 1 |  |
| C=CCn1c(=O)c2cnc(Nc3ccc(N4CCN(C)CC4)cc3)nc2n1-c1ccc2c(n1)N(CC)C(=O)C2(C)C [Compound 71] | 0.01 to 0.1 | 2 to 5 |  |
| C=CCn1c(=O)c2cnc(Nc3ccc(N4CCN(C)CC4)cc3)nc2n1-c1cc2ccccc2s1 [Compound 72] | 0.01 to 0.1 | 5 to 10 |  |
| C=CCn1c(=O)c2cnc(Nc3cc(F)c(N4CC5CC(C4)N5C)c(F)c3)nc2n1-c1cccc(C(C)(C)O)n1 [Compound 79] | 0.01 to 0.1 | > 10 |  |

Continued, values first:

| IC50 [1] [µM] | IC50 [2] [µM] | IC50 [3] [µM] | Compound |
| --- | --- | --- | --- |
| 0.005 to 0.01 | 2 to 5 |  | C=CCn1c(=O)c2cnc(Nc3ccc(N4CCN(C)CC4)cc3)nc2n1-c1cccc(C2(S(C)(=O)=O)CC2)n1 [Compound 1] |
| < 0.005 | 0.1 to 1 |  | C=CCn1c(=O)c2cnc(Nc3ccc(N4C[C@@H]5C[C@H]4CN5C)cc3)nc2n1-c1cccc(N=S(C)(C)=O)n1 [Compound 5] |
| 0.005 to 0.01 | 5 to 10 | 5 to 10 | C=CCn1c(=O)c2cnc(Nc3ccc(N(CC)CC(=O)NC)cc3)nc2n1-c1cccc(C(C)(C)O)n1 [Compound 13] |
| 0.005 to 0.01 | 5 to 10 | 2 to 5 | C=CCn1c(=O)c2cnc(Nc3ccc(N(CC)CC(=O)N4CCN(C)CC4)cc3)nc2n1-c1cccc(C(C)(C)O)n1 [Compound 14] |
| 0.005 to 0.01 | 0.1 to 1 | 1 to 2 | C=CCn1c(=O)c2cnc(Nc3ccc(N4CC5CCC(C4)O5)cc3)nc2n1-c1cccc(C(C)(C)O)n1 [Compound 17] |
| 0.005 to 0.01 | 0.1 to 1 | 1 to 2 | C=CCn1c(=O)c2cnc(Nc3ccc(N4C[C@H]5C[C@@H]4CO5)cc3)nc2n1-c1cccc(C(C)(C)O)n1 [Compound 20] |
| 0.01 to 0.1 | 1 to 2 | 0.1 to 1 | C=CCn1c(=O)c2cnc(Nc3ccc(N4CC5CC4CN5C4CCN(C)CC4)c(C)c3)nc2n1-c1cccc(C(C)(C)O)n1 (centres unmarked) [Compound 21] |
| 0.01 to 0.1 | 0.1 to 1 | 1 to 2 | C=CCn1c(=O)c2cnc(Nc3ccc(N4CC5CC(CN(Cc6ccccc6)C5)C4)cc3)nc2n1-c1cccc(C(C)(C)O)n1 [Compound 22] |
| < 0.005 | 1 to 2 | 1 to 2 | C=CCn1c(=O)c2cnc(Nc3ccc(N4C[C@@H]5C[C@H]4CN5CC(F)(F)F)cc3)nc2n1-c1cccc(C(C)(C)O)n1 [Compound 30] |
| 0.01 to 0.1 | 5 to 10 | 5 to 10 | C=CCn1c(=O)c2cnc(Nc3ccc(N4CCOc5ccccc54)cc3)nc2n1-c1cccc(C(C)(C)O)n1 [Compound 31] |
| 0.01 to 0.1 | 5 to 10 | 2 to 5 | C=CCn1c(=O)c2cnc(Nc3ccc(N4CC5CC(CN(CCOC)C5)C4)cc3)nc2n1-c1cccc(C(C)(C)O)n1 [Compound 34] |
| 0.01 to 0.1 | 1 to 2 | 1 to 2 | C=CCn1c(=O)c2cnc(Nc3ccc(-n4cc(N(C)C)cn4)cc3)nc2n1-c1cccc(C(C)(C)O)n1 [Compound 36] |
| 0.01 to 0.1 | 2 to 5 | 0.1 to 1 | C=CCn1c(=O)c2cnc(Nc3ccc(N4C[C@@H]5C[C@H]4CN5CCO)cc3)nc2n1-c1cccc(C(C)(C)O)n1 [Compound 38] |
| 0.01 to 0.1 | 0.1 to 1 | 0.1 to 1 | C=CCn1c(=O)c2cnc(Nc3ccc(N4C[C@@H]5C[C@H]4CN5C(C)C)cc3)nc2n1-c1cccc(C(C)(C)O)n1 [Compound 41] |
| 0.01 to 0.1 | 2 to 5 | 2 to 5 | C=CCn1c(=O)c2cnc(Nc3ccc(N4[C@@H]5C[C@H]4CN(C)C5)cc3)nc2n1-c1cccc(C(C)(C)O)n1 [Compound 43] |
| 0.005 to 0.01 | 0.1 to 1 | 0.1 to 1 | C=CCn1c(=O)c2cnc(Nc3ccc(N4C[C@@H]5C[C@H]4CN5CCF)cc3)nc2n1-c1cccc(C(C)(C)O)n1 [Compound 44] |
| 0.01 to 0.1 | > 10 | 5 to 10 | C=CCn1c(=O)c2cnc(Nc3cnn(-c4ccc(N(C)C)cc4)c3)nc2n1-c1cccc(C(C)(C)O)n1 [Compound 45] |
| 0.1 to 1 | 5 to 10 | > 10 | C=CCn1c(=O)c2cnc(Nc3ccc(N4CCN(C)c5ccccc54)cc3)nc2n1-c1cccc(C(C)(C)O)n1 [Compound 50] |
| 0.01 to 0.1 | 1 to 2 | 1 to 2 | C=CCn1c(=O)c2cnc(Nc3ccc(-n4cc(N5CCCC5)cn4)cc3)nc2n1-c1cccc(C(C)(C)O)n1 [Compound 55] |
| 0.005 to 0.01 | 0.1 to 1 |  | C=CCn1c(=O)c2cnc(Nc3ccc(N4CCN(C)CC4)cc3)nc2n1-c1ccc2c(C(C)=O)cn(CC)c2n1 [Compound 70] |
| 0.01 to 0.1 | 1 to 2 |  | C=CCn1c(=O)c2cnc(Nc3ccc(N4CCN(C)CC4)cc3)nc2n1-c1ccc2c(F)cn(CC)c2n1 [Compound 73] |
| 0.01 to 0.1 | 1 to 2 |  | C=CCn1c(=O)c2cnc(Nc3ccc(N4CCN(C)CC4)cc3)nc2n1-c1ccc2nc(C)n(CC)c2n1 [Compound 75] |
